Results taken from patent publication US12042523B2, “Compositions and methods for managing or improving bone disorders, joint disorders, cartilage disorders, or a combination thereof” (Unigen, Inc., priority 2014, dated 2024).
One block for each compound: values may come before it.

What was measured:
[1] = system: rhIL-1α-mediated degradation of proteoglycan in rabbit articular cartilage explants; test: Ex vivo glycosaminoglycans (GAG) release assay; format: cell-based; conditions: for effect on rhIL-1α-mediated degradation of PG / % GAG release: rhIL-1α 5 ng/ml; for % GAG release: IL-1α alone = 100
Protocol: Articular cartilage from hock joints of rabbits (2.5 kg body weight) was removed immediately after each animal was sacrificed and articular cartilage explants were obtained by following the method described by Sandy et al. (Biochem. Biophy Acta 543:36, 1978).
Briefly, after the articular surfaces were surgically exposed under sterile conditions, approximately 200-220 mg articular surfaces per joint were dissected and submerged into complete medium (DMEM, supplemented with heat inactivated 5% FBS; penicillin 100 U/ml; streptomycin 100 ug/ml). They were then rinsed several times with the complete medium and incubated for 1 to 2 days at 37° C. in a humidified 5% CO2/95% air incubator for stabilization. The complete medium was replaced with a basal medium (DMEM, supplemented with heat-inactivated 1% FBS, 10 mM HEPES, and penicillin 100 U/ml streptomycin 100 μg/ml). Approximately 30 mg cartilage pieces (2×3×0.35 mm/piece) were placed in 24-well plates and treated with given concentrations of test agents. After pretreatment for 1 h, 5 ng/ml of rhIL-1α was added to the culture medium and further incubated at 37° C. in a humidified 5% CO2/95% air incubator. The culture medium was collected 24 h later and stored at −20° C. until assay.
The amount of sulphated GAGs (e.g., released from proteoglycans) in the medium at the end of the reaction reflects the amount of articular cartilage degradation, which was determined using the commercially available 1,9-dimethy-methylene blue method according to the instructions of the manufacturer (Blyscan™ assay, Accurate Chemical and Scientific Corp., Westbury, New York).

BKB1 receptor (BKB1R) = biological target: T1, BKB1 receptor (BKB1R) (Homo sapiens, UniProt P46663); test: Bradykinin B1 (BKB1) radioligand binding assay
T1 construct: Membranes from human IMR-90 lung fibroblasts, stimulated with IL-1β; endogenous in cells; host or cells: human IMR-90 lung fibroblasts stimulated with IL-1β (membranes)
T1 sequence (P46663 1-353): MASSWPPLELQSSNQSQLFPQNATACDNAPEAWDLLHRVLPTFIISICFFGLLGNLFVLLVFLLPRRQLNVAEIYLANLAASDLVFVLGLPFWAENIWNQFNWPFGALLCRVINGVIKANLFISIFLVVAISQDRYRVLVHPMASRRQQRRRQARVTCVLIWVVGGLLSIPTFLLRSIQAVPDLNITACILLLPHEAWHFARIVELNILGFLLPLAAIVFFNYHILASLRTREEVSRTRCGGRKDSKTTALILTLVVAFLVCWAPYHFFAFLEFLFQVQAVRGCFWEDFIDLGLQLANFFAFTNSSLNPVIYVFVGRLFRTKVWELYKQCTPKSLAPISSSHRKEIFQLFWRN
Protocol: Bradykinin B1 (BKB1) radioligand binding assay was conducted to determine the inhibition activity of Curcuma longa OE and extract fractions on BKB1 binding to BKB1 receptor (BKB1R). Membranes from human IMR-90 lung fibroblasts, stimulated with IL-1β in modified HEPES buffer (PH=7.4), were incubated with a test sample in the presence of 0.9 nM [^3H](Des-Arg^10)-Kallidin for 60 minutes at room temperature. After incubation, membranes were filtered and washed five times with modified DPBS buffer (pH=7.4). Samples were scintillation counted to determine the amount of specifically bound to the BKB1 receptor containing membrane.
BKB1 binding assay, as described in Example 15, was used to test curcumin compound isolated from a Curcuma longa extract (Compound 11), as well as commercially available curcumin purchased from Sigma-Aldrich (C1386). Curcumin was tested at final concentrations ranging from 200 μM to 5 nM. Binding curves were plotted by non-linear regression fit (using GraphPad Prizm software). Ki values were computed using Cheng-Prusoff algorithm. In addition, inhibition of BKB2 receptor binding activity by curcumin was examined with methods similar to those described in Example 15 for the BKB1 receptor with some modifications. Bradykinin Radioligand Binding Assay (BKB2) was conducted using a standard assay under the following conditions: • 1. […] Reading: TopCount.

SMILES: CC(C)=CCc1c(-c2ccc(O)cc2O)oc2c3c(cc(O)c2c1=O)OC(C)(C)C=C3 [Morusin]
effect on rhIL-1α-mediated degradation of PG [1]: strong inhibitory effect

BKB1 versus BKB2 binding inhibition (BKB1 receptor (BKB1R)): selective BKB1 antagonist
SMILES: COc1cc(/C=C/C(=O)CC(=O)/C=C/c2ccc(O)c(OC)c2)ccc1O [Curcumin]

SMILES: Oc1cc(O)cc(/C=C/c2ccc(O)cc2O)c1 [Oxyresveratrol]
effect on rhIL-1α-mediated degradation of PG [1]: strong inhibitory effect

SMILES: CC(=O)N[C@H]1C(O)O[C@H](CO)[C@@H](O)[C@@H]1O (stereo partly drawn) [NAG, N-Acetyl Glucosamine]
inhibition at 150 µg/mL ([1]; Oryctolagus cuniculus, 150 μg/ml, individual): 31.8% | % GAG release ([1]; sample 12.5 μg/ml): 95.7% | % GAG release ([1]; sample 25 μg/ml): 99.2% | % GAG release ([1]; sample 50 μg/ml): 87.5% | % GAG release ([1]; sample 75 μg/ml): 81.2%

SMILES: OC[C@H]1O[C@@H](Oc2cc(O)cc(/C=C/c3ccc(O[C@@H]4O[C@H](CO)[C@@H](O)[C@H](O)[C@H]4O)cc3O)c2)[C@H](O)[C@@H](O)[C@@H]1O [Mulberoside A, mulberroside A]
effect on rhIL-1α-mediated degradation of PG [1]: strong inhibitory effect
